According to paper PMC7837296, “A novel LysR‐type regulator negatively affects biosynthesis of the immunosuppressant brasilicardin” (Engineering in Life Sciences, 2020):

Columns and labels:
LysRNt (LysRNtHis6) [1] = target: T1, LysRNt (LysRNtHis6) (Nocardia terpenica, UniProt A0A164MN72); experiment: EMSA with […]-labelled bra12p DNA; format: binding; settings: 500 nM protein, PBS, 1% ethanol
T1 construct: gene AWN90_33365; full length, C-terminal His6 tag kept (pET-21a(+)lysRNt), E. coli Rosetta 2(DE3), Talon column; only monomer seen; re-annotated start (not the N-terminally extended lysRlnNt)
T1 sequence (A0A164MN72 1-303): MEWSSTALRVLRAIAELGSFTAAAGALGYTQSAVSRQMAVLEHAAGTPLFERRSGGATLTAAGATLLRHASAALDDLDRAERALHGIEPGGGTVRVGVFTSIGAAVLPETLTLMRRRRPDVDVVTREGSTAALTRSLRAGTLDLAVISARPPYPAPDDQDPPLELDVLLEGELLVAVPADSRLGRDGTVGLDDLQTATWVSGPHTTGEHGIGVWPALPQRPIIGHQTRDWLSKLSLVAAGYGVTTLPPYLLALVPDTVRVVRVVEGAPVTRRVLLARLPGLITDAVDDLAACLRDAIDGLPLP

LysRNt (LysRNtHis6) [2] = target: T1, LysRNt (LysRNtHis6); experiment: fluorescence thermal shift, SYPRO Orange; format: binding; settings: read-out: dTmD at 0.6 mM

Structure (SMILES)	% DNA-protein complex remaining at 1 mM (LysRNt (LysRNtHis6) [1]; weak effect) [%]	ΔTm at 600 µM (LysRNt (LysRNtHis6) [2]) [°C]	% DNA-protein complex remaining at 1 mM (LysRNt (LysRNtHis6) [1]; compound lowers DNA binding) [%]
O=C(O)c1ccccc1 [compound 2, sodium benzoate]	84	0.19	
O=C(O)c1cccc(O)c1 [compound 5, 3-hydroxybenzoic acid]	86	0.17	
O=C(O)c1ccccc1O [compound 4, salicylic acid]		0.74	47
